Measured values taken from US10919841B2, “Monoamine reuptake inhibitors” (Research Triangle Institute, priority 2009, dated 2021).
Like-named read-outs stand apart in the source and are kept apart here.

Assays:
(h)SERT [1] = target: T1, (h)SERT (Homo sapiens, UniProt P31645); test: block of [3H]serotonin reuptake in HEK-(h)SERT cells; assay type: cell-based
T1 construct: expressed in transfected cells; host or cells: HEK293

(h)NET [2] = target: T2, (h)NET (Homo sapiens, UniProt P23975); test: competition binding with [125I]RTI-55 at (h)NET stably expressed in HEK293 cells; details: for Ki: read-out: Binding, Ki NET, mean ± standard error of three independent experiments
T2 sequence (P23975 whole entry): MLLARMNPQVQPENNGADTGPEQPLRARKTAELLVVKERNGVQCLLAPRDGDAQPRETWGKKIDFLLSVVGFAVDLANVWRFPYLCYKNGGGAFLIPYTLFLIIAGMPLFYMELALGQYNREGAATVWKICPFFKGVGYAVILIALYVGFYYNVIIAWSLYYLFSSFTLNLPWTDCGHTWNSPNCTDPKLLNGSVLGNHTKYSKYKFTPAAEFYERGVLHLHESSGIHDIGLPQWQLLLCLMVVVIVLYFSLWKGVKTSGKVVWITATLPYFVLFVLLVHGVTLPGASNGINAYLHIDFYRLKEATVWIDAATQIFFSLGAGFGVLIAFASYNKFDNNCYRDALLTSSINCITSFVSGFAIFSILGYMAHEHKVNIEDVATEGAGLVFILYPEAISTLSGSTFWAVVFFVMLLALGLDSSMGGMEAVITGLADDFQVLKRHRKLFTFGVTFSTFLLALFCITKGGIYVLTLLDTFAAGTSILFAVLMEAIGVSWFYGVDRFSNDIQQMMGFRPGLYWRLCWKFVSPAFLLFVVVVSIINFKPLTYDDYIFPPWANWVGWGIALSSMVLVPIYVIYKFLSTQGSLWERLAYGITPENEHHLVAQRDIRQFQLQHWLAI

(h)DAT [3] = target: T3, (h)DAT (Homo sapiens, UniProt Q01959); test: competition binding with [125I]RTI-55 at (h)DAT stably expressed in HEK293 cells; details: for Ki: mean ± standard error of three independent experiments
T3 construct: expressed in transfected cells
T3 sequence (Q01959 whole entry): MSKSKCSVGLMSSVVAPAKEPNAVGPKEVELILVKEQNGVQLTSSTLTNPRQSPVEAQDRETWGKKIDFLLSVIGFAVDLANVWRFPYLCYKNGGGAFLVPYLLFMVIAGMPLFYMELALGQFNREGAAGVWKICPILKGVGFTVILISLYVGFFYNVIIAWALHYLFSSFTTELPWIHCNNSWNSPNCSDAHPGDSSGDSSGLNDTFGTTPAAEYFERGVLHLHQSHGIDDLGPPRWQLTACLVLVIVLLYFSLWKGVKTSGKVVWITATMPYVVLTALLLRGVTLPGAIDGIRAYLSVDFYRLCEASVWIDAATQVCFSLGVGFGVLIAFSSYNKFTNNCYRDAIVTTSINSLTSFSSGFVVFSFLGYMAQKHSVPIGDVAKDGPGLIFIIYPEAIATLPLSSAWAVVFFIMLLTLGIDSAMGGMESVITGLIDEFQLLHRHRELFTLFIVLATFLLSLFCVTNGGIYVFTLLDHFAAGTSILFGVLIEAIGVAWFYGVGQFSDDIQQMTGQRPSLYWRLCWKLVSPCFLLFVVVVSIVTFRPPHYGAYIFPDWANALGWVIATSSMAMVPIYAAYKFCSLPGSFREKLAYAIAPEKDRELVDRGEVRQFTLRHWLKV

(h)SERT [4] = target: T1, (h)SERT; details: read-out: Binding, Ki SERT
rats [5] = test: cocaine discrimination (2-lever operant), i.p. administration; details: for responders at 10 mg/kg / responders at 25 mg/kg / responders at 50 mg/kg / responders at 100 mg/kg / responders at 5 mg/kg / ED50: Rattus norvegicus, ip; for responders at 10 mg/kg / responders at 25 mg/kg / responders at 50 mg/kg / responders at 100 mg/kg / responders at 5 mg/kg: read-out: % cocaine lever responding; for ED50: read-out: Full Generalization ED50
mice [6] = test: locomotor activity, 1-h observation protocol; assay type: in vivo; details: for Locomotor Activity 1-Hour ED50 / ED50: dose to produce 50% of the compound's maximal effect, 1-h; for Emax / ED50: Mus musculus; for Emax: 0.5 h, read-out: Locomotor Activity 1-Hour % Peak Cocaine
(h)DAT [7] = target: T3, (h)DAT; test: block of [3H]dopamine reuptake in HEK-(h)DAT cells; assay type: cell-based; details: for times more potent than bupropion as DA uptake inhibitor: relative to bupropion
mice [8] = test: locomotor activity, 8-h time course protocol; assay type: in vivo; details: for locomotor stimulant activity across the 1-h and 8-h protocols, in words: 1-h and 8-h tests compared; for Emax / ED50: Mus musculus; for Emax: read-out: Locomotor Activity 8-Hour % Peak Cocaine, percent of cocaine's maximal effect, 30 min period of maximum stimulation; for ED50: read-out: Locomotor Activity 8-Hour ED50; for Locomotor Activity 8-Hour Time, min Period, length: duration of locomotor activity; for Locomotor Activity 8-Hour Time, min Period, max: time period of maximum effect; for onset and duration of locomotor activity, in words: mouse, in vivo
(h)NET [9] = target: T2, (h)NET; test: block of [3H]norepinephrine reuptake in HEK-(h)NET cells
rats [10] = test: cocaine discrimination time-course study, oral administration; details: for ED50: Rattus norvegicus, po, 0.75 h; for generalization to cocaine: p.o.
[11] = [3H]5HT, read-out: IC50 for 5HT uptake inhibition
[12] = mean ± standard error of three independent experiments, read-out: Uptake, IC50 [3H]DA
[13] = dose to produce 50% of the compound's maximal effect, 8-h
[14] = [3H]DA, read-out: IC50 for DA uptake inhibition
[15] = read-out: Uptake, IC50 [3H]NE, mean ± standard error of three independent experiments
[16] = mean ± standard error of three independent experiments
[17] = read-out: IC50 for NE uptake inhibition, [3H]NE

T1 sequence (P31645 whole entry): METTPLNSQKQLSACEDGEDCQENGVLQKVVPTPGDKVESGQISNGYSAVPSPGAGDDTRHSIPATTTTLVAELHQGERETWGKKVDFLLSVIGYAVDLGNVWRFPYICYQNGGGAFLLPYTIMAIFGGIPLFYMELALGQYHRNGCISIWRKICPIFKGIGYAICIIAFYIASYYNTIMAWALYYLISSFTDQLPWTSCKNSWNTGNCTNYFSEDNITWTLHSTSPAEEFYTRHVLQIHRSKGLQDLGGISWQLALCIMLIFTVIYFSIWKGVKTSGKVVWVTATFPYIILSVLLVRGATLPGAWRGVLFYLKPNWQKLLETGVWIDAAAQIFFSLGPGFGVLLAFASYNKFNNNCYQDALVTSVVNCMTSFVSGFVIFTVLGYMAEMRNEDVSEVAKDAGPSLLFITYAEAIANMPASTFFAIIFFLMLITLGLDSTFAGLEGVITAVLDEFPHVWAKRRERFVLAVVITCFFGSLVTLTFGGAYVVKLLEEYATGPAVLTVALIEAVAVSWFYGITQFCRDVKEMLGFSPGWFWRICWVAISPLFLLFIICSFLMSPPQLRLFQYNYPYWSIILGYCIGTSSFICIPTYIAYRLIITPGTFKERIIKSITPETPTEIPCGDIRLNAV

Row | SMILES | responders at 10 mg/kg (rats [5]) [%] | responders at 25 mg/kg (rats [5]) [%] | responders at 50 mg/kg (rats [5]) [%] | responders at 100 mg/kg (rats [5]) [%] | Locomotor Activity 1-Hour ED50 (mice [6]) | locomotor stimulant activity across the 1-h and 8-h protocols, in words (mice [8]) | Emax (mice [8]) [%] | ED50 (mice [8]; [13]) [mg/kg] | Locomotor Activity 8-Hour Time, min Period, length (mice [8]) [min] | Locomotor Activity 8-Hour Time, min Period, max (mice [8]) [min] | Ki ((h)DAT [3]) [nM] | IC50 ((h)DAT [7]; [14]) [nM] | times more potent than bupropion as DA uptake inhibitor ((h)DAT [7]) [times] | Ki ((h)NET [2]) [nM] | IC50 ((h)NET [9]; [15]) [nM] | Emax (mice [6]) [%] | ED50 (mice [6]) [mg/kg] | ED50 (rats [10]) [mg/kg] | responders at 5 mg/kg (rats [5]) [%] | further results
1 | C[C@@H](NC(C)(C)C)[C@H](O)c1ccccc1 (racemic) [Compound 7, (1RS,2RS)-2-(N-tert-Butylamino)-1-phenyl-1-propanol, reference compound] |  |  |  |  |  |  |  |  |  |  |  |  |  |  |  |  |  |  |  | IC50 ((h)SERT [1]; [11]): 1.24 µM; affinity at the NET, in words ((h)NET [2]): loss of affinity; affinity at the DAT, in words ((h)DAT [3]): loss of affinity
2 | CC(NC(C)(C)C)C(=O)c1ccc(Br)cc1 (centres unmarked) [Compound 2g, 2-(N-tert-Butylamino)-4′-bromopropiophenone] | 1 | 17 | 17 | 0 | NE^f | inactive in the 1-h test but showed weak stimulant activity in the 8-h protocol | 54 | 32 | 160 | 140 to 170 | 1920 |  |  |  |  |  |  |  |  | Ki ((h)SERT [4]): 4170 nM; IC50 ((h)SERT [1]; read-out: Uptake, IC50 [3H]5-HT): 2.52 µM; IC50 ((h)DAT [7]; [12]): 1300 nM
3 | CC(NC(C)(C)C)C(=O)c1ccc(Cl)c(Cl)c1 (centres unmarked) [Compound 2j, 2-(N-tert-Butylamino)-3′,4′-dichloropropiophenone] | 0 | 17 | 34 | 2 | NE^f |  | 61 | 39.1 | 140 to 240 |  | 472 | 271 | 3.5 | 5400 | 2100 |  |  |  |  | Ki ((h)SERT [4]): 1480 nM; generalization to the cocaine cue, in words (rats [5]; i.p.): did not even show partial generalization; onset and duration of locomotor activity, in words (mice [8]): very slow onset of stimulatory activity
4 | Cc1ccc(C(=O)C(C)NC(C)(C)C)cc1Cl (centres unmarked) [Compound 2k, 2-(N-tert-Butylamino)-3′-chloro-4′-methylpropiophenone] |  |  |  |  |  | moderate activity in the 1-h test with increased activity in the time-course study | 87 |  | 60 | 10 to 40 | 1150 | 650 | 2 | 5100 | 900 | 74 | 31.9 |  |  | Ki ((h)SERT [4]; [16]): 2100 nM; IC50 ((h)SERT [1]; [11]): 0.4 µM; ED50 (mice [8]; 8 h): 60.8 mg/kg
5 | Cc1cc(C(=O)C(C)NC(C)(C)C)ccc1Br (centres unmarked) [Compound 2l, 2-(N-tert-Butylamino)-4′-bromo-5′-methylpropiophenone] | 0 | 0 | 17 | 67 | NE^f |  | 46 | 12.8 | 240 | 50 to 80 |  |  |  | 4600 | 1620 |  |  |  |  | Ki ((h)SERT [4]): 1220 nM; IC50 ((h)SERT [1]; read-out: IC50 for 5HT uptake inhibition): 0.473 µM
6 | CCCC(NC(C)(C)C)C(=O)c1cccc(Cl)c1 (centres unmarked) [Compound 2p, 2-(N-tert-Butylamino)-3′-chloropentanophenone] | 33 | 83 |  |  |  | activity similar to cocaine in the 1-h protocol but weakened significantly in the 8-h time-course study | 72 | 16.3 | 210 to 480 | 90 to 120 | 96 |  | 29 | 1170 | 472 | 96 | 17.2 | 22.2 | 1 | generalization to cocaine (rats [10]; 45 min, 50 mg/kg): partial generalization; generalization to cocaine (rats [10]; 45 min, 100 mg/kg): full generalization; generalization to cocaine (rats [10]; 90 min, 100 mg/kg): full generalization; generalization to cocaine (rats [10]; 180 min, 100 mg/kg): partial generalization; ED50 (rats [5]): 11.9 mg/kg; IC50 ((h)DAT [7]; [12]): 33 ± 7 nM
7 | CCCCC(NC(C)(C)C)C(=O)c1cccc(Cl)c1 (centres unmarked) [Compound 2q, 2-(N-tert-Butylamino)-3′-chlorohexanophenone] | 67 | 10 |  |  |  |  | 110 | 13.1 | 40 to 460 | 0 to 30 | 350 | 69 | 14 | 3190 | 400 | 81 | 13.5 | 37.9 | 1 | ED50 (rats [5]): 8.17 mg/kg
8 | CCCCCCC(NC(C)(C)C)C(=O)c1cccc(Cl)c1 (centres unmarked) [Compound 2s, 2-(N-tert-Butylamino)-3′-chlorooctanophenone] | 0 | 49 | 50 | 67 |  | weak stimulants in both tests | 60 | 9 | 130 to 140 | 110 to 140 | 510 | 135 |  | 2580 | 4890 | 61 | 33.3 | 37.9 | 0 | 
9 | CC(C)CC(NC(C)(C)C)C(=O)c1cccc(Cl)c1 (centres unmarked) [Compound 2t, 2-(N-tert-Butylamino)-3′-chlorophenyl-4-methylpentanophenone] |  |  |  |  | 47.7 mg/kg | weak stimulants in both tests |  |  | 320 | 260 to 290 | 140 | 440 |  | 2300 | 360 |  |  |  |  | Ki ((h)SERT [4]; [16]): 6200 nM; IC50 ((h)SERT [1]; bound given in μM, read-out: Uptake, IC50 [3H]5-HT): > 10 µM; Locomotor Activity 1-Hour % Peak Cocaine (mice [6]; maximal effect as percent of cocaine's maximal effect in the first 30 min): 62%; Locomotor Activity 8-Hour ED50 (mice [8]; [13]): 22.1 mg/kg; onset and duration of locomotor activity, in words (mice [8]): very slow onset of stimulatory activity; Locomotor Activity 8-Hour % Peak Cocaine (mice [8]; percent of cocaine's maximal effect, 30 min period of maximum stimulation): 35%
10 | CCCNC(C)C(=O)c1cccc(Cl)c1 (centres unmarked) [Compound 2v, 2-(N-Propylamino)-3′-chloropropiophenone] |  |  |  |  | NE^f |  |  |  |  |  |  |  |  |  |  |  |  |  |  | 5HT uptake inhibition, in words ((h)SERT [1]): inactive; DA uptake inhibition, in words ((h)DAT [7]): inactive; Locomotor Activity 8-Hour ED50 (mice [8]; [13]): NE^f; NE uptake inhibition, in words ((h)NET [9]): inactive
11 | CC(NC1CCC1)C(=O)c1cccc(Cl)c1 (centres unmarked) [Compound 2y, 2-(N-Cyclobutylamino)-3′-chloropropiophenone] |  |  |  |  |  |  |  |  |  |  | 343 | 258 | 3.7 | 1800 | 86 |  |  |  |  | Ki ((h)SERT [4]; [16]): 3450 nM; IC50 ((h)SERT [1]; [11]): 0.185 µM; IC50 ((h)NET [9]; [17]): 86 nM; times better as NE uptake inhibitors than bupropion ((h)NET [9]; relative to bupropion): 17 times
12 | CC(NC1CCCC1)C(=O)c1cccc(Cl)c1 (centres unmarked) [Compound 2z, 2-(N-Cyclopentylamino)-3′-chloropropiophenone] | 0 | 66 | 83 |  |  | strong stimulants in both studies | 110 |  | 330 to 340 | 0 to 30 | 2200 | 980 |  | 5700 |  | 110 | 10.6 | 8.28 | 2 | ED50 (rats [5]): 10.8 mg/kg; 5HT uptake inhibition, in words ((h)SERT [1]): totally inactive; ED50 (mice [8]; 8 h): 10.6 mg/kg; onset and duration of locomotor activity, in words (mice [8]): long durations of action; IC50 ((h)NET [9]; [17]): 221 nM
